Legend:
Format in all cases: biochemical
p110β/p85α = p110β/p85α (Homo sapiens, UniProt P42338); assay: Transcreener KINASE Assay, kinase inhibition of p110β/p85α; conditions: for PI3Kβ IH % @ 1 uM: 1 uM test compound; for IC50: read-out: PI3Kβ IC50
How it was run: (§1)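 ADP production was read by fluorescence polarization immunoassay (60 min detection step) after an 80 min room-temperature reaction of p110/p85α enzyme, compound in 2% DMSO, and PIP2/ATP solution (30 uM/10 uM as added) in HEPES buffer with MgCl2 and DTT. IC50s came from inhibition versus the DMSO control.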

p110δ/p85α = p110δ/p85α (Homo sapiens, UniProt O00329); assay: Transcreener KINASE Assay, kinase inhibition of p110δ/p85α; conditions: for PI3Kδ IH % @ 1 uM: 1 uM test compound; for IC50: read-out: PI3Kδ IC50
Chain of p110δ/p85α (O00329 whole entry): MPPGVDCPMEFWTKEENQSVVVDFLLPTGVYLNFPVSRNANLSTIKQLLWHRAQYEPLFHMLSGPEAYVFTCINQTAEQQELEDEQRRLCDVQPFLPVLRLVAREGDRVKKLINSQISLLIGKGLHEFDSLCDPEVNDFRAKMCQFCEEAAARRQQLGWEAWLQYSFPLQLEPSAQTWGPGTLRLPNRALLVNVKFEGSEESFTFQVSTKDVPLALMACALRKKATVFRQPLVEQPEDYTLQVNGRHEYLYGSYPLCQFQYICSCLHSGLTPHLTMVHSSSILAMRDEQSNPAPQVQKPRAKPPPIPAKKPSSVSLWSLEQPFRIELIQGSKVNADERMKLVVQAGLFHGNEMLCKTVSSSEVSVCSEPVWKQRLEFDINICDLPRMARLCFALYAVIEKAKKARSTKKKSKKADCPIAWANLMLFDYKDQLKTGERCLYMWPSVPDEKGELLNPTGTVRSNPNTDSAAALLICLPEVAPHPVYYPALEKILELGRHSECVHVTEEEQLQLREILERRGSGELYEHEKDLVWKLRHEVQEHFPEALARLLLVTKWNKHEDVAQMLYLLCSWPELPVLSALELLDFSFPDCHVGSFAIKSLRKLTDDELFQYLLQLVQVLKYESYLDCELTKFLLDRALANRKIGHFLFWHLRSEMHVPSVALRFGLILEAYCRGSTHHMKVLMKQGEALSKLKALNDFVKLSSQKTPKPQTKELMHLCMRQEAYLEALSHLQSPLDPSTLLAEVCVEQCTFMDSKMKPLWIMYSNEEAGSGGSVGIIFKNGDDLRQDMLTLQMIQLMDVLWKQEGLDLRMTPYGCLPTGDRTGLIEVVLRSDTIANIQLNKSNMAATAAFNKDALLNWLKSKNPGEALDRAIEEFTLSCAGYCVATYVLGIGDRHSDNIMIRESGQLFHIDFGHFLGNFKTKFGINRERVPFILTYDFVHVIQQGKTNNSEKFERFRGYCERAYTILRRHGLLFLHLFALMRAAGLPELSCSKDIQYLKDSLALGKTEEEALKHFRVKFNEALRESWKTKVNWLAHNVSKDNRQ
Chain of p110δ/p85α (P27986 whole entry partner): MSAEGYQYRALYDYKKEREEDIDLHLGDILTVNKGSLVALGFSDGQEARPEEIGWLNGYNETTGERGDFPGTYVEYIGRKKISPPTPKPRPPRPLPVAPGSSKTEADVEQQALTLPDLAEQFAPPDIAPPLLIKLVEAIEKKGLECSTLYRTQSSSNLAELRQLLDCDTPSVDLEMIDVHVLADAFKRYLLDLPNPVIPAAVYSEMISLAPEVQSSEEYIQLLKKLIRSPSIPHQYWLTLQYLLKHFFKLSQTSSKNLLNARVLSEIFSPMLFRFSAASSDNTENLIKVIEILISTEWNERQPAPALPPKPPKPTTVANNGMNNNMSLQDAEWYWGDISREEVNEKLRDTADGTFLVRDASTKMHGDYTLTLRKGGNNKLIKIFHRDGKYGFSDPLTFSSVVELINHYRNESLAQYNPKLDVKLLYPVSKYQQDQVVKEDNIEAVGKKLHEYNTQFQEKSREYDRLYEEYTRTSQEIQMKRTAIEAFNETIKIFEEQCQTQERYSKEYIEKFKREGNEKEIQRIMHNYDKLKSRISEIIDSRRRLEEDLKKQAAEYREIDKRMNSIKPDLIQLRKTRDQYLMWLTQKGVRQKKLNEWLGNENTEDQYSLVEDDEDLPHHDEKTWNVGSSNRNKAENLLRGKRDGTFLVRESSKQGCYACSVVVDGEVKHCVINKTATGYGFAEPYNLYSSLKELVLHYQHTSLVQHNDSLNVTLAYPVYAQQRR
How it was run: as §1

p110γ = p110γ (Homo sapiens, UniProt P48736); assay: Transcreener KINASE Assay, kinase inhibition of p110γ; conditions: for PI3Kγ IH % @ 1 uM: 1 uM test compound; for IC50: read-out: PI3Kγ IC50
Chain of p110γ (P48736 whole entry, canonical isoform): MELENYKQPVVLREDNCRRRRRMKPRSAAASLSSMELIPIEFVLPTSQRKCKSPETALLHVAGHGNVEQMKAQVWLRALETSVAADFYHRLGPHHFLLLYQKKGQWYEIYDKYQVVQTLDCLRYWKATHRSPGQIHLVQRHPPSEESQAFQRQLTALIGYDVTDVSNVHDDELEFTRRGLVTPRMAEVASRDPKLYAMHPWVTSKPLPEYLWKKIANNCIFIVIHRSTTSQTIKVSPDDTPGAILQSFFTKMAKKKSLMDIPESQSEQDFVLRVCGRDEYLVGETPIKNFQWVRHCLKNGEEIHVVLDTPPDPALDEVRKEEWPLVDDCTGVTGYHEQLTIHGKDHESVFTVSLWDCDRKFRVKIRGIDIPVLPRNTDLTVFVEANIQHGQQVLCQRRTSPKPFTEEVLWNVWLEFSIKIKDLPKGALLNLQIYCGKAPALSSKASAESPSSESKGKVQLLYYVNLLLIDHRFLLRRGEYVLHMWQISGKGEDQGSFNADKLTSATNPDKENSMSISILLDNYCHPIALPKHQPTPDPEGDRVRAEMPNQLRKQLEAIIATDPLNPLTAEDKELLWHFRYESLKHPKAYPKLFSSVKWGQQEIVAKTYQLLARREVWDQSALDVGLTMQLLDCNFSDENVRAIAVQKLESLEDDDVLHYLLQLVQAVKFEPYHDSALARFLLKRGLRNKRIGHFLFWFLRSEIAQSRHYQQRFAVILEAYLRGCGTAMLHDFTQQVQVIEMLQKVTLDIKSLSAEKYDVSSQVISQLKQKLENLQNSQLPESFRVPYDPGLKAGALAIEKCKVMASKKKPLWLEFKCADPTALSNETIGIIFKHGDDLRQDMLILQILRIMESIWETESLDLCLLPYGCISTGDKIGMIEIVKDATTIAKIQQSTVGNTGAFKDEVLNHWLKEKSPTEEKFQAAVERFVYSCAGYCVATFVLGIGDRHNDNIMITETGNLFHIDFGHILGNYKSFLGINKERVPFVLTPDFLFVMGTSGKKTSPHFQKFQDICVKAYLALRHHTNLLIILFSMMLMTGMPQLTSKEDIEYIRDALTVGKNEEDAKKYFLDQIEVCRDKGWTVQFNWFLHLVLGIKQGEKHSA
How it was run: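 Kinase activity is monitored as ADP formation, detected by competitive fluorescence polarization with a far-red tracer. Recombinant isoform complexes react for 80 min at room temperature before a 60 min detection step. IC50 values come from fitted dose-response data.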

Chain of p110β/p85α (P42338 whole entry): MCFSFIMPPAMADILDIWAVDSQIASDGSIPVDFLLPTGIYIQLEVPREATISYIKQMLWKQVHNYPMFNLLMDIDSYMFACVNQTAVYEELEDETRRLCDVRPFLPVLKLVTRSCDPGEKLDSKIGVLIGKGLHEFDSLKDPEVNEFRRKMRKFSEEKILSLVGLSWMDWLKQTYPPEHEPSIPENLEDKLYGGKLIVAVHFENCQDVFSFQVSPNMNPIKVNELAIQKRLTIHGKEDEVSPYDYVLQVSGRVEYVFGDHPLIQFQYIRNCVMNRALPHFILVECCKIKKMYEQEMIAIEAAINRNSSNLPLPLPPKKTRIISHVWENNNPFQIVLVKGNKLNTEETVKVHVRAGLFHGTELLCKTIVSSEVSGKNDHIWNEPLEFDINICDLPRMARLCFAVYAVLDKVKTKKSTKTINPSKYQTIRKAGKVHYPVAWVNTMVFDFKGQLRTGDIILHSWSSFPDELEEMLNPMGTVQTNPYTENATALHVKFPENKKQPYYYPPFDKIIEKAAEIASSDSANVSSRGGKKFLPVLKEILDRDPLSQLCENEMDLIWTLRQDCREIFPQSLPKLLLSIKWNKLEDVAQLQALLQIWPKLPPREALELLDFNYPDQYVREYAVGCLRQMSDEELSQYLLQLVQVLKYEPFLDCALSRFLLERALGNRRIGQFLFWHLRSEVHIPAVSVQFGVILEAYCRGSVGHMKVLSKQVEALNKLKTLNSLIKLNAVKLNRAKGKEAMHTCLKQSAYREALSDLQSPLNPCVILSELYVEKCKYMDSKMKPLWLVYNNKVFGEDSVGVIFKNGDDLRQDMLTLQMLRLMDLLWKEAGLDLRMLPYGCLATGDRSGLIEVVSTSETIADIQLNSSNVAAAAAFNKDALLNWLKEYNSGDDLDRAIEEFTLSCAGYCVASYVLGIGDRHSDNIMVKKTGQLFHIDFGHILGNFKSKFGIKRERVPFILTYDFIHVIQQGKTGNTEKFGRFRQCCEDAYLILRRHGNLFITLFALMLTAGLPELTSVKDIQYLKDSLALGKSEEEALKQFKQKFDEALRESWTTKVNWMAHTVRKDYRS
Chain of p110β/p85α (P27986 2-724 partner): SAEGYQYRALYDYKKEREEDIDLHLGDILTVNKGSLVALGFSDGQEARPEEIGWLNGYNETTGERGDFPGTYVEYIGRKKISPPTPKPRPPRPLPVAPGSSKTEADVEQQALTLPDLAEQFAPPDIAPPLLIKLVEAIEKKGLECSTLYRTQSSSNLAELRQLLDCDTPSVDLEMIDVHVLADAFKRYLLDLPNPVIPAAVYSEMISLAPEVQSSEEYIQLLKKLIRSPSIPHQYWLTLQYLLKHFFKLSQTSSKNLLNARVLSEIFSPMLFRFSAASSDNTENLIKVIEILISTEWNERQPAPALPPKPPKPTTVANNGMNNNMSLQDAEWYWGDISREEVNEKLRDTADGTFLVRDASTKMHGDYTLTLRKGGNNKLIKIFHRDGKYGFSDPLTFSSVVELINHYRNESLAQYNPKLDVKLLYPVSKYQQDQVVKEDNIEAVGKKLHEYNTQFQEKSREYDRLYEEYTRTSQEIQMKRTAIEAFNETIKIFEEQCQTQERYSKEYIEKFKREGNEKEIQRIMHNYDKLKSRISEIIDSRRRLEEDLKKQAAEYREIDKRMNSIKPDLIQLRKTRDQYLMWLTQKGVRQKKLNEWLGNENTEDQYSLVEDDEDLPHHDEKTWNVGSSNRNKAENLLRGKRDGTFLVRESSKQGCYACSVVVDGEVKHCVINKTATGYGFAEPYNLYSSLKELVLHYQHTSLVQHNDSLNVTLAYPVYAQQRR

Compound | PI3Kβ IH % @ 1 uM (p110β/p85α) [%] | PI3Kδ IH % @ 1 uM (p110δ/p85α) [%] | IC50 (p110δ/p85α) [µM] | PI3Kγ IH % @ 1 uM (p110γ) [%] | IC50 (p110γ) [µM] | IC50 (p110β/p85α) [µM]
CC(Nc1ncnc2[nH]cc(C#N)c12)c1cc2ncc(Cl)n2c(=O)n1-c1cccc(F)c1 (stereo not shown) [Compound 118] | 19.1 | 77.5 | 0.471 | 5.2 |  | 
O=c1c2c(Cl)ccn2nc([C@@H]2CCCN2c2ncnc3[nH]cnc23)n1Cc1ncccn1 [Compound 156] | 42.2 | 83.4 | 0.169 | 64.0 |  | 
O=c1c2c(Br)ccn2nc([C@@H]2CCN2c2ncnc3[nH]cnc23)n1-c1ccccc1 [Compound 56] | 21.7 | 91.1 |  | 83.9 |  | 
CC(=O)c1c(C)nc(N)nc1N1CC[C@H]1c1nn2ccc(Cl)c2c(=O)n1-c1ccccc1 [Compound 398] | 22.6 | 99.1 | 0.025 | >100 | 0.018 | 
CC(=O)c1c[nH]c2ncnc(N3CC(=O)C[C@H]3c3nn4ccc(F)c4c(=O)n3-c3ccccc3)c12 [Compound 445] | 22.3 | 77.5 | 0.24 | 4.3 |  | 
O=c1c2c(F)ccn2nc([C@@H]2CCCN2c2ncnc3[nH]cnc23)n1-c1ccccn1 [Compound 313] | 52.6 | 100.0 | 0.003 | 77.2 | 0.423 | 
N#Cc1cnc(N)nc1N1CCC[C@H]1c1nn2ccc(Cl)c2c(=O)n1C1CCC1 [Compound 376] | 54.8 | 99.1 | 0.006 | 93.2 | 0.026 | 
N#Cc1n[nH]c2ncnc(N3CCC[C@H]3c3nn4ccc(Cl)c4c(=O)n3-c3ccccc3)c12 [Compound 111, (S)-4-(2-(5-chloro-4-oxo-3-phenyl-3,4-dihydropyrrolo[2,1-f][1,2,4]triazin-2-yl)pyrrolidin-1-yl)-1H-pyrazolo[3,4-d]pyrimidine-3-carbonitrile] | 39.0 | 93.9 | 0.045 | 67.2 |  | 
C[S+]([O-])c1c[nH]c2ncnc(N3CC[C@H]3c3nn4ccc(F)c4c(=O)n3-c3ccccc3)c12 (stereo partly shown) [Compound 204] | 28.9 | 85.1 | 0.109 | 84.2 | 0.25 | 
CN(C)C(=O)c1cnc(N)nc1N1CC[C@H]1c1nn2ccc(Cl)c2c(=O)n1-c1ccccc1 [Compound 281] | 11.1 | 15.7 |  | 62.2 |  | 
C=Cc1ccn2nc([C@@H]3CCN3c3ncnc4[nH]cc(C#N)c34)n(-c3ccccc3)c(=O)c12 [Compound 291] | 12.6 | 80.4 |  | 91.1 | 0.143 | 
Nc1nc(N2CCC[C@H]2c2nn3ccc(Cl)c3c(=O)n2-c2ccccc2)ncc1C(F)(F)F [Compound 49] | −4.8 | 8.4 |  | 8.9 |  | 
C[S@@+]([O-])c1c[nH]c2ncnc(N3C[C@@H](F)C[C@H]3c3nn4ccc(Cl)c4c(=O)n3-c3cccc(F)c3)c12 [Compound 393, 5-chloro-2-((2S,4S)-4-fluoro-1-(5-((R)-methylsulfinyl)-7H-pyrrolo[2,3-d]pyrimidin-4-yl)pyrrolidin-2-yl)-3-(3-fluorophenyl)pyrrolo[2,1-f][1,2,4]triazin-4(3H)-one] | 35.2 | 94.7 | 0.009 | 90.7 | 0.009 | 
CC(=O)c1c[nH]c2ncnc(NC(C)c3cn4ccc(Cl)c4c(=O)n3-c3ccccc3)c12 (stereo not shown) [Compound 272] | 76.9 | 98.8 | 0.007 | >100 | 0.021 | 0.239

Continued, values first:

PI3Kβ IH % @ 1 uM (p110β/p85α) [%] | PI3Kδ IH % @ 1 uM (p110δ/p85α) [%] | IC50 (p110δ/p85α) [µM] | PI3Kγ IH % @ 1 uM (p110γ) [%] | IC50 (p110γ) [µM] | IC50 (p110β/p85α) [µM] | Compound
52.9 | 99.1 | 0.001 | 95.7 | 0.006 |  | CC(=O)c1c[nH]c2ncnc(NC(C)c3cn4ccc(Cl)c4c(=O)n3-c3cccc(F)c3)c12 (stereo not shown) [Compound 276]
80.2 | 91.7 | 0.006 | >100 | 0.021 | 0.066 | O=c1c2c(Cl)ccn2nc([C@@H]2CCCN2c2ncnc3[nH]cnc23)n1-c1ccc(F)cc1 [Compound 41]
93.0 | 98.1 | 0.002 | 92.4 | 0.003 | 0.022 | Cc1nc(N)nc(N2C[C@H](C)C2c2nn3ccc(Cl)c3c(=O)n2-c2ccc(F)cc2)c1C#N (stereo partly shown) [Compound 439]
94.2 | >100 | 0.001 | 97.6 | 0.002 | 0.015 | CC(Nc1nc(N)ncc1C#N)c1cn2ccc(Cl)c2c(=O)n1-c1ccccc1 (stereo not shown) [Compound 271]
86.1 | >100 | 0.002 | 96.0 | 0.005 | 0.084 | Cc1nc(N)nc(N2C[C@H](C)[C@H]2c2nn3ccc(C#N)c3c(=O)n2-c2ccccc2)c1C#N [Compound 499]
4.4 | >100 | 0.029 | 89.3 | 0.149 |  | Nc1ncc(C(F)(F)F)c(N2CCC[C@H]2c2nn3ccc(Cl)c3c(=O)n2-c2ccccc2)n1 [Compound 50]
89.6 | >100 | 0.004 | >100 | 0.005 | 0.05 | Cc1nc(N)nc(N2C[C@H](C)[C@H]2c2nn3ccc(F)c3c(=O)n2-c2ccc(F)cc2)c1C#N [Compound 463]
4.1 | 56.0 |  | 97.4 | 0.04 |  | CCC(=O)c1cnc(N)nc1N1CC[C@H]1c1nn2ccc(Cl)c2c(=O)n1-c1ccccc1 [Compound 362]
81.7 | 97.4 | 0.004 | 92.2 | 0.003 | 0.089 | CC(=O)c1c[nH]c2ncnc(N3CCC[C@H]3c3nn4ccc(Cl)c4c(=O)n3-c3ccc(F)cc3)c12 [Compound 208]
62.5 | >100 | 0.005 | 94.1 | 0.044 |  | CS(=O)(=O)c1c[nH]c2ncnc(N3CCC[C@H]3c3nn4ccc(Cl)c4c(=O)n3-c3ccccc3)c12 [Compound 144]
1.5 | 82.3 | 0.211 | 7.6 |  |  | Nc1ncc(C(F)(F)F)c(N2CCC[C@H]2c2nn3ccc(CO)c3c(=O)n2-c2ccccc2)n1 [Compound 178]
56.2 | 95.5 | 0.002 | 97.7 | 0.014 |  | Cc1nc(N)nc(N2CC[C@H]2c2nn3ccc(Cl)c3c(=O)n2-c2cccc(F)c2)c1C#N [Compound 441]
